Patent US4545991A, “Difficidin and derivative antibacterials” (Merck & Co., Inc., priority 1983, dated 1985)
≈ marks a conversion by molar mass, not a printed value.

How the values were obtained:
[1] = pH of aqueous solution; format: physicochemical
[2] = tested on: Klebsiella pneumoniae MB 4005; test: standard mouse protection test, experimental systemic infection; format: in vivo, CD1 female mice; details: × 2 i.p. doses (immediately after infection and 6 hours later), 7 days
Protocol: The antibacterial efficacy of difficidin and its derivatives was further determined in standard mouse protection tests. An experimental systemic infection was produced in CD1 female mice (Charles River Breeding Laboratories, Wilmington, MA) by the intraperitoneal injection of a suitably diluted broth culture of Klebsiella pneumoniae MB 4005. The test antibacterial compounds and the control drug (streptomycin) were administered parenterally (intraperitoneally) immediately after infection and again 6 hours later. At least 4 fourfold dilutions of each agent were tested. There were 5 mice at each dose level. […] Under the conditions of the test, all infected untreated mice died within 48 hours.
Mice were protected by the administration of the test antibacterial compounds or streptomycin at the median effective doses shown in Table IV below.

[3] = tested on: Pseudomonas aeruginosa; test: MIC, standard in vitro assay (Table I); format: cell-based; details: for MIC Range: 10^6 CFU, 3 strains tested
Source text: (§1) Using standard in vitro assay techniques, minimal inhibitory concentrations (MIC) have been determined for difficidin and oxydifficidin against a number of bacteria.

[4] = tested on: Klebsiella pneumoniae; test: MIC, standard in vitro assay (Table I); format: cell-based; details: 10^6 CFU; 2 strains tested
Source text: as §1

[5] = tested on: Proteus; test: MIC, standard in vitro assay (Table I); format: cell-based; details: for MIC Range: 10^6 CFU, 3 strains tested
Source text: as §1

[6] = tested on: Salmonella typhimurium; test: MIC, standard in vitro assay (Table I); format: cell-based; details: for MIC Range: 10^6 CFU, 1 strain tested
Source text: as §1

[7] = tested on: Serratia marcescens; test: MIC, standard in vitro assay (Table I); format: cell-based; details: for MIC Range: 10^6 CFU, 1 strain tested
Source text: as §1

[8] = tested on: Escherichia coli; test: MIC, standard in vitro assay (Table I); format: cell-based; details: 10^6 CFU; 4 strains tested
Source text: as §1

[9] = tested on: Streptococcus faecalis; test: MIC, standard in vitro assay (Table I); format: cell-based; details: 10^6 CFU; 1 strain tested
Source text: as §1

[10] = tested on: Enterobacter; test: MIC, standard in vitro assay (Table I); format: cell-based; details: 10^6 CFU; 3 strains tested
Source text: as §1

[11] = tested on: Staphylococcus aureus; test: MIC, standard in vitro assay (Table I); format: cell-based; details: for MIC Range: 10^6 CFU, 3 strains tested
Source text: as §1

[12] = solubility; format: physicochemical; details: water, lower alcohols such as methanol and ethanol
[13] = tested on: Ent. cloacae P99^-; test: MIC, in vitro agar dilution assay, aerobic bacteria (Table II); format: cell-based; details: Ent. cloacae P99^-; 10^6 CFU per spot
[14] = tested on: B. fragilis Clind^r Fox^r Tet^r; test: MIC, in vitro agar dilution assay, anaerobic bacteria (Table III); format: cell-based; details: 10^6 CFU per spot
[15] = tested on: aerobic microorganisms; test: antibacterial activity against aerobic microorganisms, summary; format: cell-based; details: such as Pseudomonas aeruginosa and Staphyloccoccus aureus
[16] = tested on: Bifidobacterium dentium Fox^r; test: MIC, in vitro agar dilution assay, anaerobic bacteria (Table III); format: cell-based; details: Bifidobacterium dentium Fox^r; 10^6 CFU per spot
[17] = tested on: Eubacterium limosum; test: as above; format: cell-based; details: 10^6 CFU per spot
[18] = tested on: Ser. marcescens; test: MIC, in vitro agar dilution assay, aerobic bacteria (Table II); format: cell-based; details: 10^6 CFU per spot
[19] = decomposition during lyophilization; format: physicochemical; details: lyophilization of (IV) to (V)
Protocol: There is evidence that from 10-15% decomposition of oxydifficidin may have occurred during lyophilization of (IV) to (V). Based on the lyophilized weight of (V) and the UV analysis of (IV), A1 cm^1% (275 nm)--438 is calculated.

SMILES | MIC Range [3] [µg/mL] | MIC Range [4] [µg/mL] | MIC Range [5] [µg/mL] | MIC Range [6] [µg/mL] | MIC Range [7] [µg/mL] | MIC Range [8] [µg/mL] | MIC Range [9] [µg/mL] | MIC Range [10] [µg/mL] | MIC Range [11] [µg/mL] | MIC [13] [µg/mL] | MIC [14] [µg/mL] | MIC [17] [µg/mL] | MIC [18] [µg/mL] | further results
C=CC=C(C)CCC1CC=CC=C(C)C(OP(=O)(O)O)CCCC=CC=CC=CCC(C)C(=C)CC(=O)O1 (stereo not drawn) [Difficidin, difficidin] | 8 (≈ 14.7 µM) | 8 (≈ 14.7 µM) | 0.5 to 8 | 8 (≈ 14.7 µM) | 4 (≈ 7.34 µM) | 8 (≈ 14.7 µM) | 128 (≈ 235 µM) | 8 to 16 | 8 to 16 | 8.0 (≈ 14.7 µM) | 0.25 (≈ 0.459 µM) | > 128 | 4.0 (≈ 7.34 µM) | pH of 0.1% by weight aqueous solution [1]: 6.9; ED50 ([2]; Test No. 3): 1.56 mg/kg; effectiveness of difficidin relative to oxydifficidin ([3]; Ps. aeruginosa, in most cases): four times more effective; effectiveness of difficidin relative to oxydifficidin ([5]; Proteus, in most cases): four times more effective; effectiveness of difficidin relative to oxydifficidin ([6]; Salmonella typhimurium, in most cases): four times more effective; effectiveness of difficidin relative to oxydifficidin ([7]; Serratia marcescens, in most cases): four times more effective; effectiveness of difficidin relative to oxydifficidin ([11]; S. aureus, in most cases): four times more effective; solubility [12]: soluble in water, lower alcohols such as methanol and ethanol; potency against aerobic microorganisms relative to oxydifficidin [15]: more potent than oxydifficidin; MIC [16]: 32 µg/mL (≈ 58.8 µM)
C=CC=C(C)CCC1CC=CC=C(C)C(OP(=O)(O)O)CCCC=CC=CC=CC(O)C(C)C(=C)CC(=O)O1 (stereo not drawn) [Oxydifficidin, oxydifficidin] | 16 to 32 | 8 (≈ 14.3 µM) | 2 to 32 | 32 (≈ 57.1 µM) | 16 (≈ 28.5 µM) | 4 to 16 | 128 (≈ 228 µM) | 32 to 64 | 32 to 128 | 64.0 (≈ 114 µM) | 0.25 (≈ 0.446 µM) | > 128 | 16.0 (≈ 28.5 µM) | ED50 ([2]; Test No. 1): 12.25 mg/kg; ED50 ([2]; Test No. 2): 14.85 mg/kg; decomposition during lyophilization [19]: 10-15%
